Columns and labels:
[1] = tested on: Velvetleaf, Abutilon theophrasti; test: Postemergence herbicidal evaluation, ABUTH; type: in vivo, Medic.; settings: 0.2500 kg/ha
Summary of the method: (§1)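 Seedlings grown about two weeks were sprayed with compound in 50/50 acetone/water containing 0.5% TWEEN 20 at rates equivalent to about 0.0157–0.500 kg/ha, nozzle at 40 psi. Injury was rated visually 0–9 versus control four to five weeks after treatment; replicate tests averaged.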

[2] = tested on: Sicklepod, Cassia obtusifolia; test: Preemergence herbicidal evaluation, CASOB; type: in vivo, L.; settings: 0.2500 kg/ha
Description: (§2) Results of herbicide evaluation are expressed on a rating scale (0-9). The scale is based upon a visual observation of plant stand, vigor, malformation, size, chlorosis and overall plant appearance as compared with a control.
(§3) The preemergence herbicidal activity of the test compounds of the present invention is exemplified by the following tests in which the seeds of a variety of monocotyledonous and dicotyledonous plants are separately mixed with potting soil and planted on top of approximately one inch of soil in separate pint cups. After planting, the cups are sprayed with the selected aqueous acetone solution containing test compound in sufficient quantity to provide the equivalent of about 0.0156 to 0.500 kg per hectare of test compound per cup. The treated cups are then placed on greenhouse benches, watered and cared for in accordance with conventional greenhouse procedures. From four to five weeks after treatment, the tests are terminated and each cup is examined and rated according to the rating system provided in Example 185.
(§4) The compounds evaluated are reported by compound number given in Example 185.

[3] = tested on: Foxtail, Green, Setaria viridis; test: Preemergence herbicidal evaluation, SETVI; type: in vivo, (L.) Beau; settings: 0.2500 kg/ha
Description: as §2, §3, §4

Corn, Field, Zea mays [4] = test: Postemergence herbicidal evaluation, ZEAMX; type: in vivo, L.; settings: 0.2500 kg/ha
Summary of the method: as §1

[5] = tested on: Soybean, Williams, Glycine max; test: Postemergence herbicidal evaluation, GLXMAW; type: in vivo, (L.) Merr. cv Williams; settings: 0.2500 kg/ha
Summary of the method: as §1

[6] = tested on: Barnyardgrass, Echinochloa crus-galli; test: Preemergence herbicidal evaluation, ECHCG; type: in vivo, (L.) Beau; settings: 0.2500 kg/ha
Description: as §2, §3, §4

[7] = tested on: Morningglory Spp., Ipomoea Spp.; test: Postemergence herbicidal evaluation, IPOSS; type: in vivo; settings: 0.2500 kg/ha
Protocol: In the tests, seedling plants are grown in jiffy flats for about two weeks. The test compounds are dispersed in 50/50 acetone/water mixtures containing 0.5% TWEEN®20, a polyoxyethylene sorbitan monolaurate surfactant of Atlas Chemical Industries, in sufficient quantities to provide the equivalent of about 0.0157 kg to 0.500 kg per hectare of active compound when applied to the plants through a spray nozzle operating at 40 psi for a predetermined time. After spraying, the plants are placed on greenhouse benches and are cared for in accordance with conventional greenhouse procedures. From four to five weeks after treatment, the seedling plants are examined and rated according to the rating system set forth below. Where more than one test is involved for a given compound, the data are averaged.
as §2

[8] = tested on: Ragweed, Common, Ambrosia artemisifolia; test: Postemergence herbicidal evaluation, AMBEL; type: in vivo, L.; settings: 0.2500 kg/ha
Summary of the method: as §1

[9] = tested on: Sicklepod, Cassia obtusifolia; test: Postemergence herbicidal evaluation, CASOB; type: in vivo, L.; settings: 0.2500 kg/ha
Summary of the method: as §1

[10] = tested on: Velvetleaf, Abutilon theophrasti; test: Preemergence herbicidal evaluation, ABUTH; type: in vivo, Medic.; settings: 0.2500 kg/ha
Description: as §2, §3, §4

[11] = tested on: ECHORC Watergrass (Calif.); test: Preemergence weed control, flooded paddy (Table III); type: in vivo, Echinochloa oryzoides; design: scale not given here
Protocol: (§5) Preemergence herbicidal activity under flooded paddy conditions is determined as follows: plant seeds or propagating organs are planted in the top 0.5 cm of silt loam soil in 32 oz. plastic containers with a diameter of 10.5 cm and no drainage holes. Water is added to these containers and maintained at 1.5 to 3 cm above the soil surface for the duration of the experiment. The test compounds are applied as aqueous/acetone mixtures 50/50 v/v pipetted directly into the flood water to give the equivalent of about 0.0313 to 0.500 kg/ha of active ingredient. The treated containers are placed on greenhouse benches and cared for in accordance with conventional greenhouse procedures. Three to four weeks after treatment, the test is terminated and each container is examined and herbicidal effect rated according to the rating system provided in Example 185. The compounds evaluated are reported by compound number given in Example 185.

Corn, Field, Zea mays [12] = test: Preemergence herbicidal evaluation, ZEAMX; type: in vivo, L.; settings: 0.2500 kg/ha
Description: as §2, §3, §4

[13] = tested on: Morningglory Spp., Ipomoea Spp.; test: Preemergence herbicidal evaluation, IPOSS; type: in vivo; settings: 0.2500 kg/ha
Description: as §2, §3, §4

MOOVA Monochoria = test: Preemergence weed control, flooded paddy (Table III); type: in vivo, Monochoria vaginalis; design: scale not given here
Protocol: as §5

[14] = tested on: Rice, Tebonnet, Oryza sativa; test: Preemergence herbicidal evaluation, ORYSAT; type: in vivo, (L.) Tebonnet; settings: 0.2500 kg/ha
Description: as §2, §3, §4

[15] = tested on: SAGPY Arrowhead (Pygmaea); test: Preemergence weed control, flooded paddy (Table III); type: in vivo, Sagittaria pygmaea; design: scale not given here
Protocol: as §5

[16] = tested on: Foxtail, Green, Setaria viridis; test: Postemergence herbicidal evaluation, SETVI; type: in vivo, (L.) Beau; settings: 0.2500 kg/ha
Summary of the method: as §1

[17] = tested on: Lambsquarters, Common, Chenopodium album; test: Postemergence herbicidal evaluation, CHEAL; type: in vivo, L.; settings: 0.2500 kg/ha
Summary of the method: as §1

Row | Structure (SMILES) | herbicide rating (0-9) [1] | herbicide rating (0-9) [2] | herbicide rating (0-9) [3] | herbicide rating (0-9) (Corn, Field, Zea mays [4]) | herbicide rating (0-9) [5] | herbicide rating (0-9) [6] | herbicide rating (0-9) [7] | herbicide rating (0-9) [8] | herbicide rating (0-9) [9] | herbicide rating (0-9) [10] | herbicidal effect rating ([11]; 0.0625 kg/ha) | herbicidal effect rating ([11]; 0.1250 kg/ha) | herbicidal effect rating ([11]; 0.2500 kg/ha) | herbicidal effect rating ([11]; 0.5000 kg/ha) | herbicide rating (0-9) (Corn, Field, Zea mays [12]) | herbicide rating (0-9) [13] | herbicidal effect rating (MOOVA Monochoria; 0.0625 kg/ha) | herbicidal effect rating (MOOVA Monochoria; 0.1250 kg/ha) | herbicidal effect rating (MOOVA Monochoria; 0.2500 kg/ha) | herbicidal effect rating (MOOVA Monochoria; 0.5000 kg/ha) | other results
1 | COC(=O)C(C)Oc1cc(C)ccc1-c1nsc2ccc(-n3c(=O)cc(C(F)(F)F)n(C)c3=O)cc12 (centres unmarked) [Compound 9, Methyl 2-{{6-{5-[3,6-dihydro-3-methyl-4-(trifluoromethyl)-2,6-dioxo-1(2H)-pyrimidinyl]-1,2-benzisothiazol-3-yl}-m-tolyl}oxy}propionate] | 9.0 | 9.0 | 9.0 | 9.0 | 9.0 | 9.0 | 9.0 | 9.0 | 9.0 | 9.0 | 9.0 | 9.0 | 9.0 | 9.0 | 9.0 | 9.0 | 9.0 | 9.0 | 9.0 | 9.0 | herbicidal effect rating ([11]; 0.0313 kg/ha): 9.0; herbicidal effect rating (MOOVA Monochoria; 0.0313 kg/ha): 9.0; herbicide rating (0-9) [14]: 9.0; herbicidal effect rating ([15]; 0.0313 kg/ha): 0.0; herbicidal effect rating ([15]; 0.0625 kg/ha): 2.0; herbicidal effect rating ([15]; 0.1250 kg/ha): 8.0; herbicidal effect rating ([15]; 0.2500 kg/ha): 8.0; herbicidal effect rating ([15]; 0.5000 kg/ha): 9.0; herbicide rating (0-9) [16]: 9.0
2 | Cc1cc(O)c(-c2nsc3ccc(-n4c(=O)cc(C(F)(F)F)n(C)c4=O)cc23)cc1C [Compound 11, 3-[3-(6-Hydroxy-3,4-xylyl)-1,2-benzisothiazol-5-yl]-1-methyl-6-(trifluoromethyl)-2,4(1H,3H)-pyrimidinedione] | 9.0 | 3.0 | 9.0 | 5.5 | 6.0 | 0.0 | 9.0 | 9.0 | 7.0 | 9.0 | 7.0 | 8.0 | 8.0 | 9.0 | 5.0 | 5.0 | 9.0 | 9.0 | 9.0 | 9.0 | herbicide rating (0-9) [17]: 9.0; herbicide rating (0-9) [14]: 0.0; herbicidal effect rating ([15]; 0.0625 kg/ha): 0.0; herbicidal effect rating ([15]; 0.1250 kg/ha): 0.0; herbicidal effect rating ([15]; 0.2500 kg/ha): 2.0; herbicidal effect rating ([15]; 0.5000 kg/ha): 9.0; herbicide rating (0-9) [16]: 8.0
3 | COc1cc(C)ccc1-c1nsc2ccc(-n3c(=O)cc(C(F)(F)F)n(C)c3=O)cc12 [Compound 7, 3-[3-(2-Methoxy-p-tolyl)-1,2-benzisothiazol-5-yl]-1-methyl-6-(trifluoromethyl)-2,4(1H,3H)-pyrimidinedione] | 9.0 | 9.0 | 9.0 | 7.0 | 9.0 | 9.0 | 9.0 | 9.0 | 9.0 | 9.0 | 9.0 | 9.0 | 9.0 | 9.0 | 7.0 | 9.0 | 9.0 | 9.0 | 9.0 | 9.0 | herbicide rating (0-9) [17]: 9.0; herbicidal effect rating ([11]; 0.0313 kg/ha): 9.0; herbicidal effect rating (MOOVA Monochoria; 0.0313 kg/ha): 9.0; herbicide rating (0-9) [14]: 8.0; herbicidal effect rating ([15]; 0.0313 kg/ha): 6.0; herbicidal effect rating ([15]; 0.0625 kg/ha): 8.0; herbicidal effect rating ([15]; 0.1250 kg/ha): 9.0; herbicidal effect rating ([15]; 0.2500 kg/ha): 9.0; herbicidal effect rating ([15]; 0.5000 kg/ha): 9.0; herbicide rating (0-9) [16]: 9.0
4 | COC(=O)COc1cc(C)c(C)cc1-c1nsc2ccc(-n3c(=O)cc(C(F)(F)F)n(C)c3=O)cc12 [Compound 12, Methyl {{6-{5-[3,6-dihydro-3-methyl-4-(trifluoromethyl)-2,6-dioxo-1(2H)-pyrimidinyl]-1,2-benzisothiazol-3-yl}-3,4-xylyl}oxy}acetate] | 9.0 | 9.0 | 9.0 | 9.0 | 9.0 | 6.0 | 9.0 | 9.0 | 9.0 | 9.0 | 9.0 | 9.0 | 9.0 | 9.0 | 7.0 | 9.0 | 9.0 | 9.0 | 9.0 | 9.0 | herbicide rating (0-9) [17]: 9.0; herbicidal effect rating ([11]; 0.0313 kg/ha): 9.0; herbicidal effect rating (MOOVA Monochoria; 0.0313 kg/ha): 9.0; herbicide rating (0-9) [14]: 7.0; herbicidal effect rating ([15]; 0.0313 kg/ha): 0.0; herbicidal effect rating ([15]; 0.0625 kg/ha): 2.0; herbicidal effect rating ([15]; 0.1250 kg/ha): 4.0; herbicidal effect rating ([15]; 0.2500 kg/ha): 9.0; herbicidal effect rating ([15]; 0.5000 kg/ha): 9.0; herbicide rating (0-9) [16]: 9.0
5 | COC(=O)COc1cc(C)ccc1-c1nsc2ccc(-n3c(=O)cc(C(F)(F)F)n(C)c3=O)cc12 [Compound 8, Methyl {{6-{5-[3,6-dihydro-3-methyl-4-(trifluoromethyl)-2,6-dioxo-1(2H)-pyrimidinyl]-1,2-benzisothiazol-3-yl}-m-tolyl}oxy}acetate] | 9.0 | 9.0 | 9.0 | 9.0 | 9.0 | 9.0 | 9.0 | 9.0 | 9.0 | 9.0 | 9.0 | 9.0 | 9.0 | 9.0 | 9.0 | 9.0 | 9.0 | 9.0 | 9.0 | 9.0 | herbicide rating (0-9) [17]: 9.0; herbicidal effect rating ([11]; 0.0313 kg/ha): 9.0; herbicidal effect rating (MOOVA Monochoria; 0.0313 kg/ha): 9.0; herbicide rating (0-9) [14]: 9.0; herbicidal effect rating ([15]; 0.0313 kg/ha): 6.0; herbicidal effect rating ([15]; 0.0625 kg/ha): 9.0; herbicidal effect rating ([15]; 0.1250 kg/ha): 9.0; herbicidal effect rating ([15]; 0.2500 kg/ha): 9.0; herbicidal effect rating ([15]; 0.5000 kg/ha): 9.0; herbicide rating (0-9) [16]: 9.0

Reference: patent US6156700A, “3-(1,2-Benzisothiazol- and isoxazol-5-yl)-2,4(1H,3H)-pyrimidinedione or thione and 3-(1,2-benzisothiazol- and isoxazol-5-yl)-4(3H)-pyrimidinone or thione herbicidal agents” (American Cyanmid Company, priority 1998, dated 2000)
